Experimental data published in US6706740B2, “Fungicidal heterocyclic aromatic amides and their compositions, methods of use and preparation” (Dow AgroSciences LLC, priority 1999, dated 2004).
Like-named read-outs stand apart in the source and are kept apart here.

Tests used:
[1] = tested on: Magnaporthe grisea (Pyricularia oryzae—PYRIOR); assay: microbe, parasite or virus in culture; type: cell-based; settings: Pyricularia oryzae, read-out: PYRIOR in vitro Growth Inhibition
[2] = tested on: Rhizoctonia solani (RHIZSO); assay: microbe, parasite or virus in culture; type: cell-based; settings: Rhizoctonia solani, read-out: RHIZSO in vitro Growth Inhibition
[3] = tested on: Mycosphaerella graminicola (Septoria tritici—SEPTTR); assay: In vitro fungal growth inhibition, Mycosphaerella graminicola (SEPTTR); type: cell-based; settings: Zymoseptoria tritici, read-out: SEPTTR in vitro Growth Inhibition
[4] = tested on: Stagonospora nodorum (Leptosphaeria nodorum—LEPTNO); assay: In vitro fungal growth inhibition, Stagonospora nodorum (LEPTNO); type: cell-based; settings: Leptosphaeria, read-out: LEPTNO in vitro Growth Inhibition
[5] = tested on: Ustilago maydis (USTIMA); assay: microbe, parasite or virus in culture; type: cell-based; settings: Mycosarcoma maydis, read-out: USTIMA in vitro Growth Inhibition
[6] = tested on: Phytophthora infestans (PHYTIN); assay: microbe, parasite or virus in culture; type: cell-based; settings: Phytophthora infestans, read-out: PHYTIN in vitro Growth Inhibition
[7] = tested on: Phytophthora infestans—PHYTIN; assay: whole plant or invertebrate; type: in vivo; settings: Phytophthora, in Solanum lycopersicum, 24 h, read-out: PHYTIN in vivo 1 Day Protectant
[8] = tested on: Puccinia recondita—PUCCRT; assay: Brown Rust of Wheat, in vivo whole plant, 24 Hour Protectant; settings: Puccinia, control of fungal infection vs untreated plants, read-out: PUCCRT in vivo 1 Day Protectant
[9] = tested on: Erysiphe graminis—ERYSGT; assay: Powdery Mildew of Wheat, in vivo whole plant, 24 Hour Protectant; settings: Erysiphe, control of fungal infection vs untreated plants, read-out: ERYSGT in vivo 1 Day Protectant
[10] = tested on: Septoria tritici—SEPTTR; assay: Leaf Blotch of Wheat, in vivo whole plant, 24 Hour Protectant; settings: Zymoseptoria tritici, 24 h, control of fungal infection vs untreated plants, read-out: SEPTTR in vivo 1 Day Protectant
[11] = tested on: Leptosphaeria nodorum—LEPTNO; assay: Glume Blotch of Wheat, in vivo whole plant, 24 Hour Protectant; settings: control of fungal infection vs untreated plants; for pest or weed control at 100 ppm: Leptosphaeria, read-out: LEPTNO in vivo 1 Day Protectant
[12] = 100 ppm spray, wheat, 24 hour protectant
[13] = wheat plants sprayed at 100 ppm, inoculated after 24 hours

Row | SMILES | inhibition at 25 ppm [1] [%] | inhibition at 25 ppm [2] [%] | inhibition at 25 ppm ([3]; 25 ppm in growth medium) [%] | inhibition at 25 ppm ([4]; 25 ppm in growth medium) [%] | inhibition at 25 ppm [5] [%] | inhibition at 25 ppm [6] [%] | pest or weed control at 100 ppm [7] [%] | pest or weed control at 100 ppm [8, 12] [%] | pest or weed control at 100 ppm [9, 12] [%] | pest or weed control at 100 ppm [10, 12] [%] | pest or weed control at 100 ppm [11, 12] [%] | melting point | LEPTNO in vivo 1 Day Protectant [11, 12] | inhibition at 25 ppm ([3]; 25 ppm in the growth medium) [%] | inhibition at 25 ppm ([4]; 25 ppm in the growth medium) [%] | pest or weed control at 100 ppm [8, 13] [%] | pest or weed control at 100 ppm [9, 13] [%] | pest or weed control at 100 ppm [10, 13] [%] | pest or weed control at 100 ppm [11, 13] [%]
1 | CCOC(=O)c1cc(Oc2ccc(C(F)(F)F)cc2)ccc1NC(=O)c1nccc(OC)c1O [Compound 427] | < 80 | < 80 | < 80 | < 80 | < 80 | < 80 | < 25 | 25 to 74 | < 25 | 25 to 74 | 25 to 74 | 145 to 147 °C | – | – | – | – | – | – | –
2 | COc1ccnc(C(=O)Nc2ccc(Oc3ccc(OC(=O)C(C)C)cc3)cc2)c1O [Compound 436] | < 80 | < 80 | < 80 | < 80 | < 80 | < 80 | < 25 | < 25 | < 25 | 25 to 74 | 25 to 74 | 109 to 110.5 °C | – | – | – | – | – | – | –
3 | COc1ccnc(C(=O)Nc2cccc(Sc3ccc(C(F)(F)F)cc3)c2)c1O [Compound 444] | < 80 | < 80 | < 80 | < 80 | < 80 | < 80 | < 25 | 25 to 74 | < 25 | 25 to 74 | 25 to 74 | 133 to 134 °C | – | – | – | – | – | – | –
4 | COc1ccnc(C(=O)Nc2ccc(Sc3cccc(C(F)(F)F)c3)cc2)c1O [Compound 445] | > 80 | < 80 | > 80 | < 80 | > 80 | < 80 | < 25 | 25 to 74 | 25 to 74 | 25 to 74 | – | 167 to 169 °C | + + | – | – | – | – | – | –
5 | COc1ccnc(C(=O)Nc2cccc(C(=O)Nc3ccc(C(F)(F)F)cc3)c2)c1O [Compound 450] | < 80 | < 80 | < 80 | < 80 | < 80 | < 80 | < 25 | < 25 | < 25 | 25 to 74 | 25 to 74 | > 260 °C | – | – | – | – | – | – | –
6 | COc1ccnc(C(=O)Nc2ccc(C(=O)Oc3cccc(C(F)(F)F)c3)cc2)c1O [Compound 451] | > 80 | < 80 | < 80 | < 80 | < 80 | < 80 | < 25 | 25 to 74 | < 25 | < 25 | 25 to 74 | 196 °C (dec.) | – | – | – | – | – | – | –
7 | COc1ccnc(C(=O)Nc2ccc(NC(=O)c3cccc(C(F)(F)F)c3)cc2)c1O [Compound 453] | < 80 | < 80 | < 80 | < 80 | < 80 | < 80 | < 25 | < 25 | < 25 | 25 to 74 | 25 to 74 | 240 to 242 °C | – | – | – | – | – | – | –
8 | COc1ccnc(C(=O)Nc2cccc(NC(=O)c3ccc(C(F)(F)F)cc3)c2)c1O [Compound 454] | < 80 | < 80 | < 80 | < 80 | < 80 | < 80 | < 25 | < 25 | < 25 | 25 to 74 | 25 to 74 | 240 to 242 °C | – | – | – | – | – | – | –
9 | COc1ccnc(C(=O)Nc2ccc(OC3CC(C)(C)CC(C)(C)C3)cc2)c1O [Compound 458] | < 80 | < 80 | < 80 | > 80 | < 80 | < 80 | < 25 | 25 to 74 | < 25 | < 25 | – | 141 to 142 °C | + + | – | – | – | – | – | –
10 | COc1ccnc(C(=O)Nc2ccc(OC3CC(C)(C)OC(C)(C)C3)cc2)c1O [Compound 459] | < 80 | < 80 | < 80 | < 80 | < 80 | < 80 | < 25 | 25 to 74 | 25 to 74 | 25 to 74 | – | 161 to 163 °C | + + | – | – | – | – | – | –
11 | COc1ccnc(C(=O)Nc2cccc(OC3CC(C)(C)OC(C)(C)C3)c2)c1O [Compound 460] | < 80 | < 80 | < 80 | < 80 | < 80 | < 80 | < 25 | 25 to 74 | 25 to 74 | 25 to 74 | 25 to 74 | 149 to 153 °C | – | – | – | – | – | – | –
12 | COc1ccnc(C(=O)Nc2ccc(Oc3cc(C(F)(F)F)ccn3)cc2)c1O [Compound 461] | < 80 | < 80 | – | – | < 80 | < 80 | < 25 | – | – | – | – | 169 to 171 °C | – | < 80 | < 80 | 25 to 74 | < 25 | 25 to 74 | 25 to 74
